Experimental data published in PubChem BioAssay (NCI).
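Cells were grown in 96-well plates and exposed to each compound for 48 hours at five concentrations; endpoints were interpolated linearly between bracketing concentrations, or set to the highest concentration if not reached. The concentration for 50% growth inhibition is given as GI50. Definition used: TGI = concentration required for complete inhibition of growth.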

Tests used:
Experiment in all cases: NCI anticancer screen, dose series, 48 h
[1] = test system: 786-0 renal
[2] = test system: A498 renal
[3] = test system: A549 NSCLC
[4] = test system: ACHN renal
[5] = test system: BT-549 breast
[6] = test system: CAKI-1 renal
[7] = test system: CCRF-CEM leukemia
[8] = test system: COLO 205 colon
[9] = test system: DU-145 prostate
[10] = test system: EKVX NSCLC
[11] = test system: HCC-2998 colon
[12] = test system: HCT-116 colon
[13] = test system: HCT-15 colon
[14] = test system: HL-60(TB) leukemia
[15] = test system: HOP-62 NSCLC
[16] = test system: HOP-92 NSCLC
[17] = test system: HS 578T breast
[18] = test system: HT29 colon
[19] = test system: IGROV1 ovarian
[20] = test system: K-562 leukemia
[21] = test system: KM12 colon
[22] = test system: LOX IMVI melanoma
[23] = test system: M14 melanoma
[24] = test system: MALME-3M melanoma
[25] = test system: MCF7 breast
[26] = test system: MDA-MB-231 breast
[27] = test system: MDA-MB-435
[28] = test system: MOLT-4 leukemia
[29] = test system: NCI-H226 lung
[30] = test system: NCI-H23 lung
[31] = test system: NCI-H460 lung
[32] = test system: NCI-H522 lung
[33] = test system: NCI/ADR-RES ovarian
[34] = test system: OVCAR-3 ovarian
[35] = test system: OVCAR-4 ovarian
[36] = test system: OVCAR-5 ovarian
[37] = test system: OVCAR-8 ovarian
[38] = test system: PC-3 prostate
[39] = test system: RPMI-8226 leukemia
[40] = test system: SF-268 CNS
[41] = test system: SF-295 CNS
[42] = test system: SF-539 CNS
[43] = test system: SK-MEL-2 melanoma
[44] = test system: SK-MEL-28 melanoma
[45] = test system: SK-MEL-5 melanoma
[46] = test system: SK-OV-3 ovarian
[47] = test system: SN12C renal
[48] = test system: SNB-19 CNS
[49] = test system: SNB-75 CNS
[50] = test system: SR leukemia
[51] = test system: SW-620 colon
[52] = test system: T-47D breast
[53] = test system: TK-10 renal
[54] = test system: U251 CNS
[55] = test system: UACC-257 melanoma
[56] = test system: UACC-62 melanoma
[57] = test system: UO-31 renal
[58] = test system: RXF 393 renal

## O=C1OCC2=C1C(c1ccccc1)c1cc3c(cc1N2)OCO3 (stereo not drawn)
[1]
  GI50: 0.055 µM
  TGI: > 69.3 µM
[2]
  GI50: 0.0159 µM
  TGI: 0.498 µM
[3]
  GI50: 0.0375 µM
  TGI: > 56.4 µM
[4]
  GI50: 0.0946 µM
  TGI: 36.4 µM
[5]
  GI50: 0.0441 µM
  TGI: 4.97 µM
[6]
  GI50: 0.439 µM
  TGI: > 62.9 µM
[7]
  GI50: 0.039 µM
  TGI: > 100 µM
[8]
  GI50: 0.0261 µM
  TGI: 0.0703 µM
[9]
  GI50: 0.0443 µM
  TGI: > 100 µM
[10]
  GI50: 2.29 µM
  TGI: > 100 µM
[11]
  GI50: 0.0333 µM
  TGI: > 38.7 µM
[12]
  GI50: 0.0352 µM
  TGI: > 100 µM
[13]
  GI50: 0.0373 µM
  TGI: > 53.1 µM
[14]
  GI50: 0.0214 µM
  TGI: 0.0573 µM
[15]
  GI50: 0.0462 µM
  TGI: 33.4 µM
[16]
  GI50: 0.141 µM
  TGI: 7.63 µM
[17]
  GI50: 0.0469 µM
  TGI: > 84.4 µM
[18]
  GI50: 0.0351 µM
  TGI: > 59 µM
[19]
  GI50: 0.0816 µM
  TGI: 50.2 µM
[20]
  TGI: 32.7 µM
[21]
  GI50: < 0.0167 µM
[22]
  GI50: 0.042 µM
  TGI: > 100 µM
[23]
  GI50: 0.0276 µM
  TGI: > 100 µM
[24]
  GI50: 14.1 µM
  TGI: > 100 µM
[25]
  GI50: 0.0316 µM
  TGI: 17.3 µM
[26]
  GI50: 0.046 µM
  TGI: > 74.7 µM
[27]
  TGI: 0.026 µM
[28]
  GI50: 0.036 µM
[29]
  GI50: 0.0245 µM
  TGI: 0.0742 µM
[30]
  GI50: 0.0449 µM
  TGI: > 100 µM
[31]
  GI50: 0.0354 µM
[32]
  GI50: < 0.011 µM
  TGI: 1.56 µM
[33]
  GI50: 0.0204 µM
  TGI: 1.62 µM
[34]
  GI50: 0.0202 µM
  TGI: 0.0486 µM
[35]
  GI50: 0.0823 µM
  TGI: > 48.3 µM
[36]
  GI50: 0.0829 µM
  TGI: > 100 µM
[37]
  GI50: 0.0437 µM
  TGI: > 48.2 µM
[38]
  GI50: 0.0404 µM
  TGI: > 100 µM
[39]
  GI50: 0.0571 µM
[40]
  GI50: 0.0654 µM
  TGI: > 43.4 µM
[41]
  GI50: 0.0169 µM
[42]
  GI50: 0.0318 µM
  TGI: 9.3 µM
[43]
  GI50: 0.494 µM
  TGI: 41.7 µM
[44]
  GI50: 0.0428 µM
  TGI: > 100 µM
[45]
  GI50: 0.0336 µM
  TGI: 0.234 µM
[46]
  GI50: 0.0308 µM
  TGI: 1.39 µM
[47]
  GI50: 0.0557 µM
  TGI: > 65 µM
[48]
  GI50: 0.0568 µM
  TGI: > 100 µM
[49]
  GI50: 0.0201 µM
  TGI: 1.16 µM
[50]
  GI50: < 0.0115 µM
[51]
  GI50: 0.037 µM
  TGI: > 100 µM
[52]
  GI50: 5.14 µM
  TGI: > 100 µM
[53]
  GI50: 11.4 µM
  TGI: > 100 µM
[54]
  GI50: 0.0409 µM
  TGI: > 50.1 µM
[55]
  GI50: 4.58 µM
  TGI: > 100 µM
[56]
  GI50: 0.0328 µM
  TGI: > 100 µM
[57]
  GI50: 0.332 µM
  TGI: > 100 µM

## COc1ccc(-c2nc(Nc3cc(C)[nH]n3)c3ccccc3n2)cc1
[1]
  GI50: 1.27 µM
  TGI: > 31.3 µM
[2]
  GI50: 0.271 µM
  TGI: 1.46 µM
[3]
  GI50: 2.33 µM
  TGI: 44.9 µM
[4]
  GI50: 0.801 µM
  TGI: > 100 µM
[5]
  GI50: 3.07 µM
  TGI: 12.6 µM
[6]
  GI50: 0.52 µM
  TGI: > 64.1 µM
[7]
  GI50: 5.18 µM
  TGI: 66.2 µM
[8]
  GI50: 1.5 µM
  TGI: 3.61 µM
[9]
  GI50: 3.75 µM
  TGI: > 100 µM
[11]
  GI50: 3.35 µM
  TGI: > 77.4 µM
[12]
  GI50: 0.744 µM
  TGI: 17.5 µM
[13]
  GI50: 1.34 µM
  TGI: > 100 µM
[14]
  GI50: 1.58 µM
  TGI: > 35.2 µM
[15]
  GI50: 1.17 µM
  TGI: > 26.2 µM
[16]
  GI50: 0.621 µM
  TGI: 3.77 µM
[17]
  GI50: 0.678 µM
  TGI: 4.6 µM
[18]
  GI50: 1.19 µM
  TGI: 5.15 µM
[19]
  GI50: 0.686 µM
  TGI: 7.12 µM
[20]
  GI50: 3.25 µM
  TGI: > 100 µM
[21]
  GI50: 0.0994 µM
  TGI: 29.1 µM
[23]
  GI50: 0.75 µM
  TGI: 31.4 µM
[24]
  GI50: 28.5 µM
  TGI: > 100 µM
[25]
  GI50: 1.71 µM
  TGI: 44.6 µM
[26]
  GI50: 4.21 µM
  TGI: > 100 µM
[27]
  GI50: 1.3 µM
  TGI: > 100 µM
[28]
  GI50: 3.67 µM
  TGI: 58.5 µM
[29]
  GI50: 1.62 µM
  TGI: > 33.3 µM
[30]
  GI50: 5.47 µM
  TGI: > 100 µM
[31]
  GI50: 3.1 µM
  TGI: > 100 µM
[32]
  GI50: 1.67 µM
  TGI: 19.8 µM
[33]
  GI50: 3.25 µM
  TGI: > 58.1 µM
[34]
  GI50: 3.72 µM
  TGI: 38.8 µM
[35]
  GI50: 2.34 µM
  TGI: > 72.5 µM
[36]
  GI50: 2.25 µM
  TGI: > 88 µM
[37]
  GI50: 6.16 µM
  TGI: 99.8 µM
[38]
  GI50: 1.48 µM
  TGI: 66.1 µM
[39]
  GI50: 4.16 µM
  TGI: 28.6 µM
[58]
  GI50: 0.6 µM
  TGI: 2.67 µM
[40]
  GI50: 2.42 µM
  TGI: > 59.4 µM
[41]
  GI50: 2.61 µM
  TGI: > 71.4 µM
[42]
  GI50: 1.47 µM
  TGI: 4.15 µM
[43]
  GI50: 0.44 µM
  TGI: 40.6 µM
[44]
  GI50: 5.12 µM
  TGI: > 100 µM
[45]
  GI50: 4.11 µM
  TGI: 22.7 µM
[46]
  GI50: 1.39 µM
  TGI: > 100 µM
[47]
  GI50: 2.01 µM
  TGI: > 100 µM
[48]
  GI50: 2.88 µM
  TGI: > 100 µM
[49]
  GI50: 0.289 µM
  TGI: 2.27 µM
[50]
  GI50: 0.581 µM
  TGI: 25.4 µM
[51]
  GI50: 2.14 µM
  TGI: > 100 µM
[52]
  GI50: 1.59 µM
  TGI: > 25.6 µM
[53]
  GI50: 0.865 µM
  TGI: 8.11 µM
[54]
  GI50: 1.16 µM
  TGI: > 100 µM
[55]
  GI50: 13 µM
  TGI: 65.2 µM
[56]
  GI50: 2.37 µM
  TGI: > 100 µM
[57]
  GI50: 0.529 µM
  TGI: 14.9 µM
